Values quoted from earlier work, collected in patent publication US20240423197A1, “KIT FOR PREPARING HERBICIDAL APPLICATION MIXTURES” (BAYER CROPSCIENCE LP, priority 2021, published 2024).

Settings: known HLB value predetermined based on estimation by Griffin's method

HLB | Substance
15 | Polysorbate 80 (polyoxyethylene sorbitan monooleate) [Tween® 80]
4.3 | Sorbitan monooleate [Span® 80]
